Results taken from patent US10526581B2, “Modulation of cardiac stem-progenitor cell differentiation, assays and uses thereof” (priority 2013, dated 2020).
“Also recorded” adds a separate entry of the source.

B1: Wnt5a: non-canonical Wnt, cardiopoietic growth factor (protein, UniProt P41221 62-380, looked up)
Protein Wnt-5a: IIGAQPLCSQLAGLSQGQKKLCHLYQDHMQYIGEGAKTGIKECQYQFRHRRWNCSTVDNTSVFGRVMQIGSRETAFTYAVSAAGVVNAMSRACREGELSTCGCSRAARPKDLPRDWLWGGCGDNIDYGYRFAKEFVDARERERIHAKGSYESARILMNLHNNEAGRRTVYNLADVACKCHGVSGSCSLKTCWLQLADFRKVGDALKEKYDSAAAMRLNSRGKLVQVNSRFNSPTTQDLVYIDPSPDYCVRNESTGSLGTQGRLCNKTSEGMDGCELMCCGRGYDQFKTVQTERCHCKFHWCCYVKCKKCTEIVDQFVCK
B2: BMP-10: cardiopoietic growth factor (protein, UniProt O95393 317-424, looked up)
Bone morphogenetic protein 10: NAKGNYCKRTPLYIDFKEIGWDSWIIAPPGYEAYECRGVCNYPLAEHLTPTKHAIIQALVHLKNSQKASKACCVPTKLEPISILYLDKGVVTYKFKYEGMAVSECGCR
B3: Wnt3a: soluble Wnt-3a, canonical Wnt growth factor (protein, UniProt P56704 19-352, looked up)
Protein Wnt-3a: SYPIWWSLAVGPQYSSLGSQPILCASIPGLVPKQLRFCRNYVEIMPSVAEGIKIGIQECQHQFRGRRWNCTTVHDSLAIFGPVLDKATRESAFVHAIASAGVAFAVTRSCAEGTAAICGCSSRHQGSPGKGWKWGGCSEDIEFGGMVSREFADARENRPDARSAMNRHNNEAGRQAIASHMHLKCKCHGLSGSCEVKTCWWSQPDFRAIGDFLKDKYDSASEMVVEKHRESRGWVETLRPRYTYFKVPTERDLVYYEASPNFCEPNPETGSFGTRDRTCNVSSHGIDGCDLLCCGRGHNARAERRREKCRCVFHWCCYVSCQECTRVYDVHTCK
B4: Dkk-1: Dickkopf-1, an inhibitor of canonical Wnts (protein, UniProt O94907 32-266, looked up)
Dickkopf-related protein 1: TLNSVLNSNAIKNLPPPLGGAAGHPGSAVSAAPGILYPGGNKYQTIDNYQPYPCAEDEECGTDEYCASPTRGGDAGVQICLACRKRRKRCMRHAMCCPGNYCKNGICVSSDQNHFRGEIEETITESFGNDHSTLDGYSRRTTLSSKMYHTKGQEGSVCLRSSDCASGLCCARHFWSKICKPVLKEGQVCTKHRRKGSHGLEIFQRCYCGEGLSCRIQKDHHQASNSSRLHTCQRH
B5: BMP-4: cardiopoietic growth factor (protein, UniProt P12644 293-408, looked up)
Bone morphogenetic protein 4: SPKHHSQRARKKNKNCRRHSLYVDFSDVGWNDWIVAPPGYQAFYCHGDCPFPLADHLNSTNHAIVQTLVNSVNSSIPKACCVPTELSAISMLYLDEYDKVVLKNYQEMVVEGCGCR

Assays:
[1] = test system: c-kit^pos CD45^neg eCSCs; experiment: BrdU incorporation proliferation assay of c-kit^pos eCSCs with cardiopoietic growth factors and Wnt or TGF-β modulators; type: cell-based, rat; settings: in vitro
Method: (§1) c-kit^posCD45^neg eCSCs express functional receptors for these cardiopoetic factors (cGFs) (FIG. 4). In particular, both TGF-β1 and Wnt receptors are activated and signal to their known downstream effectors in eCSCs isolated from ISO injured hearts (FIG. 4). We thus directly tested in vitro the growth response of freshly isolated c-kit^pos CD45^neg eCSCs grown in limited serum (1% ESQ-FBS) to individual cGFs. Dose-response curves were performed to determine the optimal concentration for each cGF (FIG. 13A-H). […] These effects were confirmed by qRT-PCR of cardiomyocyte-specific mRNAs (FIG. 5).
(§2) Wnt/β-catenin and TGF-β/SMADs signaling play critical roles in the regulation of embryonic as well as different tissue-specific stem cell fate (21-23). In particular, these two signaling pathways have distinct functions in mammalian cardiogenesis (24-27). Thus, to extend our findings we have tested through gain and loss of function experiments the effects of Wnt/β-catenin and TGF-β/SMADs signaling pathways on c-kit^pos eCSC fate in vitro. […] To disrupt Wnt/ρ-catenin, c-kit^pos eCSCs were either treated with Dickkopf-1 (Dkk-1), an inhibitor of canonical Wnts or transfected with a specific short hairpin RNA for β-catenin (β-cat^shRNA). […] The positive and negative modulators of Wnt/β-catenin physiologically acted on their known molecular targets by respectively stabilizing or degrading β-catenin and its LEF/TCF-dependent transcriptional activity (FIG. 6). […] On the other hand, Dkk-1 increased c-kit^pos CSC myocyte specification (FIG. 5), even though its effect was not sufficient to produce a fully differentiated phenotype as indicated by the lack of cells which expressed abundant and organised sarcomeric structures (FIG. 5).

[2] = test system: c-kit^pos eCSCs; experiment: cardiomyocyte differentiation of c-kit^pos eCSCs in differentiation medium (cTnI^pos cells, qRT-PCR); type: cell-based, rat; settings: for number of myocyte differentiating (cTnI^pos) cells / transcription of myogenic lineage markers: differentiation medium (LIF withdrawal); for transcription of myogenic lineage markers: qRT-PCR; for differentiation of eCSCs into the cardiomyocyte lineage (myocyte specification): differentiation medium
Method: FIGS. 4(A-E). […] Nuclei were identified by DAPI in blue. Bar=50 μm. […] Data are Mean±SD of n=6/condition. […]
RNA was extracted using Qiagen RNeasy columns and was reverse transcribed using first strand cDNA synthesis with random or oligo-dT primers (Applied Biosystems). Residual amounts of DNA were removed by on-column DNase treatment using the RNase-Free DNase Set (Qiagen) during the RNeasy procedure. Quantitative RT-PCR was performed using SYBR Green (BioRad) on a MyIQ thermocycler (BioRad). The PCR-reaction included 2 μl of template cDNA, and 300 nM forward and reverse primers. PCR efficiency was evaluated by using a standard curve of five serial dilution points. Data were analysed using BioRad IQ software and mRNA was normalized to the housekeeping gene, GAPDH. All reactions were carried out in triplicate.

[3] = test system: rats with ISO+5-FU cardiomyopathy
[4] = test system: CSCs^GFP/TK and adult rat ventricular myocytes (ARVM); experiment: GCV in vitro on CSCs^GFP/TK growth and on co-cultured adult rat ventricular myocytes; type: cell-based
Method: c-kit^pos CSCs were grown in CSC growth medium consisting of Dulbecco's MEM/Ham's F12 (DMEM/F12; […] Millipore), bFGF (10 ng/ml; Peprotech), EGF (20 ng/ml; Peprotech), insulin-transferrin-selenite (ITS; […] Ganciclovir (GCV, 10^−5M) was added and cells were cultured for 3 and 7 days. Mouse c-kit^pos CSCs or c-kit^pos CSC-derived cardiospheres were cultured on glass chamber slides (BD Falcon), fixed with 4% PFA for 20 min, and then stained. […] For cardiomyocyte/CSC^GFP/TK co-culture assays, 3× wells/condition were fixed and stained to assess the number of apoptotic (TdT and caspase-3) cardiomyocytes (Kawaguchi et al., 2010). Cardiomyocytes were identified by co-staining for cTnI. The percentage of TdT-positive and caspase-3 positive cardiomyocytes was determined by counting 20 random fields at ×40 magnification for each well. Numbers were expressed as a percentage of TdT- or caspase-3 positive cardiomyocytes relative to the total number of cardiomyocytes counted. FITC or Texas Red-conjugated 2° Abs were used. Nuclei were stained with DAPI. Fluorescence was visualized and images acquired with confocal microscopy (Zeiss LSM 510 or 710).

[5] = test system: Nestin^pos progenitor cells from clonal-derived c-kit^pos eCSCs; experiment: neurogenic differentiation of Nestin^pos cells from clonal c-kit^pos eCSCs; type: cell-based, rat; settings: differentiation medium, 7 days
Source text: It has been previously shown that cardiac side population cells that express the neural progenitor marker, Nestin, can be induced to differentiate into the ectoderm layer, producing neurons and glial cells (15). We then purified for a population of Nestin^pos progenitor cells from clonal-derived c-kit^pos eCSCs. When placed into differentiation medium supplemented with Retinoic Acid or LIF for 7 days, we found up-regulation of GFAP, MATH2/NeuroD6, a neuron specific transcription factor (FIG. 3C), β-3 tubulin arrayed in filaments and bundles (FIG. 3C), neuron-specific enolase (FIG. 3C), acetylcholintransferase (FIG. 3C), doublecortin (DCX), and S-100β (FIG. 3C). Furthermore, after RA differentiation, cells had characteristics of neuronal dendrites, indicating a morphological change that resembled neurons (FIG. 3C).

[6] = test system: rats after ISO damage; settings: rat, in vivo
[7] = test system: hCSCs; experiment: stimulation of hCSCs with inflammatory cytokines, immunogenicity molecules; type: cell-based, human
Source text: The human c-kit CSCs (hCSCs) from all the donors tested so far (n=8) expressed normal levels of the HLA class I and no detectable levels of HLA class II and the co-stimulatory molecules CD40, CD80 and CD 86 (see primary data example below)> they also fail to express CD 275 but express high levels of PD-L1 (CD274).

[8] = test system: c-kit^pos CD45^neg eCSCs; experiment: clonogenic assay of c-kit^pos eCSCs; type: cell-based, rat; settings: in vitro
Method: as §1, §2

Molecule	c-kit^pos eCSC proliferation (growth, expansion) [1]	number of myocyte differentiating (cTnI^pos) cells [2]	transcription of myogenic lineage markers [2]	c-kit^pos eCSC clonogenicity [8]	also measured
IGF-1: cardiopoietic growth factor	significantly increased	–	–	–	–
O=C1Nc2cc(Br)ccc2/C1=C1/Nc2ccccc2/C1=N\O [BIO, 6-bromoindirubin-3′-oxime]	stimulate	significantly reduced	significantly reduced	–	–
Nc1nc(O)c2ncn(COC(CO)CO)c2n1 [GCV, Ganciclovir]	–	–	–	–	effect of GCV treatment on recovered cellular and functional parameters ([3]; ISO+5-FU+CSCs^GFP/TK group): dramatic reversal of all the recovered cellular and functional parameters; adverse effects of GCV treatment ([3]; rat, in vivo): did not cause any histological or functional adverse effects; adult rat ventricular myocyte (ARVM) apoptosis ([4]; GCV 10^−5 M, alone or co-cultured with CSC^GFP/TK): does not cause any relevant effect; growth of Lenti-GFP/TK-transfected CSCs (CSCs^GFP/TK) ([4]; GCV 10^−5 M, in vitro): growth arrest; survival of adult rat ventricular CMs cultured with CSCs^GFP/TK ([4]; GCV at a concentration sufficient to kill the CSCs^GFP/TK): does not affect survival
HGF: cardiopoietic growth factor	significantly increased	–	–	–	–
LIF: supplement of the neural differentiation medium	–	–	–	–	expression of neural markers (GFAP, MATH2/NeuroD6, β-3 tubulin and others) [5]: up-regulation
O=c1[nH]cc(F)c(=O)[nH]1 [5-FU, 5-fluorouracil]	–	–	–	–	toxic effects of the 5-FU regime [6]: did not cause any cellular or functional cardiac or extra-cardiac toxic effects
IFNγ: inflammatory cytokine	–	–	–	–	expression of HLA class I and class II on hCSCs [7]: significantly enhanced; expression of the co-stimulatory molecules CD40, CD80 and CD 86 on hCSCs [7]: does not induce
FGF-2: cardiopoietic growth factor	significantly increased	–	–	–	–
TGF-β1: cardiopoietic growth factor	did not affect; also recorded: Neither BMP-2, BMP-4, TGF-β1 supplementation nor Smad2 knock-down affected	significantly induced	significantly induced	did not affect; also recorded: Neither BMP-2, BMP-4, TGF-β1 supplementation nor Smad2 knock-down affected	differentiation of eCSCs into the cardiomyocyte lineage (myocyte specification) [2]: promoted differentiation
B1	did not affect	–	–	did not affect	differentiation of eCSCs into the cardiomyocyte lineage (myocyte specification) [2]: promoted differentiation
B2	–	significantly induced	significantly induced	–	–
B3	significantly increased	significantly reduced	significantly reduced	most effective	c-kit^pos eCSC clonogenicity ([8]; listed as Wnt-3a): stimulate; c-kit^pos eCSC proliferation (growth, expansion) ([1]; listed as Wnt-3a): stimulate
B4	significant decrease	–	–	significant decrease	differentiation of eCSCs into the cardiomyocyte lineage (myocyte specification) [2]: increased
B5	did not affect; also recorded: Neither BMP-2, BMP-4, TGF-β1 supplementation nor Smad2 knock-down affected	significantly induced	significantly induced	did not affect; also recorded: Neither BMP-2, BMP-4, TGF-β1 supplementation nor Smad2 knock-down affected	differentiation of eCSCs into the cardiomyocyte lineage (myocyte specification) [2]: promoted differentiation
